{"source": "patent US7727995B2", "about": "“Antiherpes drug combinations” (University of Massachusetts, priority 2003, dated 2010)", "key": {"McKrae strain of HSV-1": {"test_system": "McKrae strain of HSV-1", "experiment": "Inhibition of HSV encephalitis in mice, HSV-1 infection", "format": "in vivo", "experimental": "(§1) BALB/c female mice at 6 weeks of age were anesthetized, their corneas lightly scratched with a 27-gauge needle, and 3 μl of infectious virus (McKrae strain of HSV-1 or G strain of HSV-2; 5×10^5 PFU) was placed on each cornea. At the time of infection, groups of ten animals were given 0.1 ml injections i.p. of vehicle (corn oil) or test drug or drug combination (e.g., HBPG or foscarnet or both) in vehicle at indicated concentrations, and the animals were returned to their cages and allowed to recover from anesthesia. Treatment was repeated by a regimen optimal for the drug combination and dose. Animals were observed daily for 30 days, and the day of death of each animal was recorded."}, "G strain of HSV-2": {"test_system": "G strain of HSV-2", "experiment": "Inhibition of HSV encephalitis in mice, HSV-2 infection", "format": "in vivo", "experimental": "as §1"}, "HSV1 [1]": {"test_system": "HSV1", "settings": "150 μM; trigeminal ganglia of HSV1 latent mice on Vero cells; cited from earlier work"}, "HSV1 [2]": {"test_system": "HSV1", "settings": "cited from earlier work"}, "HSV1 [3]": {"test_system": "HSV1", "settings": "cited from earlier work", "remark": "listed apart in the source"}, "HSV2": {"test_system": "HSV2", "settings": "mice, cited from earlier work"}, "[4]": {"settings": "HSV1, 25 mg/kg ip in corn oil, twice daily for five days"}, "[5]": {"settings": "HSV1, 50 mg/kg ip in corn oil, twice daily for five days"}, "[6]": {"settings": "Table 5, HSV1, 100 mg/kg ip in corn oil, twice daily for five days"}, "[7]": {"settings": "HSV1, 100 mg/kg ip twice daily, 5 days, observed 30 days"}, "[8]": {"settings": "HSV1, 200 mg/kg ip twice daily, 5 days"}, "[9]": {"settings": "HSV1, 400 mg/kg ip twice daily, 5 days"}, "[10]": {"settings": "HSV2, 100 mg/kg ip twice daily, 5 days"}, "[11]": {"settings": "HSV2, 200 mg/kg ip twice daily, 5 days"}, "[12]": {"settings": "HSV2, 400 mg/kg ip twice daily, 5 days"}, "[13]": {"settings": "Table 2, HSV2, 50 mg/kg ip, bid, 5 d"}, "[14]": {"settings": "HSV1, 1 mg/kg ip in corn oil, twice daily for five days"}, "[15]": {"settings": "HSV1, 2.5 mg/kg ip in corn oil, twice daily for five days"}, "[16]": {"settings": "HSV1, 5 mg/kg ip in corn oil, twice daily for five days"}, "[17]": {"settings": "HSV2, 1 mg/kg ip in corn oil, twice daily for five days"}, "[18]": {"settings": "HSV2, 2.5 mg/kg ip in corn oil, twice daily for five days"}, "[19]": {"settings": "HSV2, 5 mg/kg ip in corn oil, twice daily for five days"}, "[20]": {"settings": "Table 2, HSV2, 100 mg/kg ip, bid, 5 d"}}, "note": "Like-named read-outs stand apart in the source and are kept apart here. Marks after values point to notes of the source that are not given here.", "data": [{"smiles": "Nc1nc2c(ncn2COCCO)c(=O)[nH]1", "note": "[acyclovir]", "values": [{"measurement": "Survivors/treated", "setting": "McKrae strain of HSV-1; [4]", "value": "1/10"}, {"measurement": "Survivors/treated (%)", "setting": "McKrae strain of HSV-1; [4]", "value": 10, "unit": "%"}, {"measurement": "Survivors/treated", "setting": "McKrae strain of HSV-1; [5]", "value": "3/10"}, {"measurement": "Survivors/treated (%)", "setting": "McKrae strain of HSV-1; [5]", "value": 30, "unit": "%"}, {"measurement": "Survivors/treated", "setting": "McKrae strain of HSV-1; [6]", "value": "7/10"}, {"measurement": "Survivors/treated (%)", "setting": "McKrae strain of HSV-1; [6]", "value": 70, "unit": "%"}]}, {"smiles": "O=C(O)P(=O)(O)O", "note": "[foscarnet, phosphonoformate]", "values": [{"measurement": "Survivors/treated (%)", "setting": "McKrae strain of HSV-1; HSV1, 100 mg/kg ip twice daily, 5 days", "value": "(10%)"}, {"measurement": "Survivors/treated", "setting": "McKrae strain of HSV-1; [7]", "value": "1/10"}, {"measurement": "Survivors/treated (%)", "setting": "McKrae strain of HSV-1; [8]", "value": "(50%)"}, {"measurement": "Survivors/treated (%)", "setting": "McKrae strain of HSV-1; [9]", "value": "(70%)"}, {"measurement": "Survivors/treated", "setting": "G strain of HSV-2; [10]", "value": "0/10"}, {"measurement": "Survivors/treated (%)", "setting": "G strain of HSV-2; [10]", "value": "(0%)"}, {"measurement": "Survivors/treated (%)", "setting": "G strain of HSV-2; [11]", "value": "(40%)"}, {"measurement": "Survivors/treated (%)", "setting": "G strain of HSV-2; [12]", "value": "(60%)"}, {"measurement": "Survivors/treated", "setting": "G strain of HSV-2; [13]", "value": "0/10"}, {"measurement": "Survivors/treated (%)", "setting": "G strain of HSV-2; [13]", "value": "(0%)"}]}, {"smiles": "O=c1[nH]c(Nc2cccc(C(F)(F)F)c2)nc2nc[nH]c12", "note": "[m-CF3PG, N^2-(m-trifluoromethylphenyl)guanine]", "values": [{"measurement": "number of ganglia producing virus compared to control ganglia", "setting": "HSV1 [1]", "value": "significantly reduced"}]}, {"smiles": "Nc1ccn(C[C@@H](CO)OCP(=O)(O)O)c(=O)n1", "note": "[cidofovir]", "values": [{"measurement": "Survivors/treated", "setting": "McKrae strain of HSV-1; [14]", "value": "0/10"}, {"measurement": "Survivors/treated (%)", "setting": "McKrae strain of HSV-1; [14]", "value": 0, "unit": "%"}, {"measurement": "Survivors/treated", "setting": "McKrae strain of HSV-1; [15]", "value": "3/10"}, {"measurement": "Survivors/treated (%)", "setting": "McKrae strain of HSV-1; [15]", "value": 30, "unit": "%"}, {"measurement": "Survivors/treated", "setting": "McKrae strain of HSV-1; [16]", "value": "9/10"}, {"measurement": "Survivors/treated (%)", "setting": "McKrae strain of HSV-1; [16]", "value": 90, "unit": "%"}, {"measurement": "median effective dose", "setting": "McKrae strain of HSV-1; HSV1 encephalitis, ip twice daily for five days", "value": "2.5 to 5", "unit": "mg/kg"}, {"measurement": "Survivors/treated", "setting": "G strain of HSV-2; [17]", "value": "0/10"}, {"measurement": "Survivors/treated (%)", "setting": "G strain of HSV-2; [17]", "value": 0, "unit": "%"}, {"measurement": "Survivors/treated", "setting": "G strain of HSV-2; [18]", "value": "4/10"}, {"measurement": "Survivors/treated (%)", "setting": "G strain of HSV-2; [18]", "value": 40, "unit": "%"}, {"measurement": "Survivors/treated", "setting": "G strain of HSV-2; [19]", "value": "10/10"}, {"measurement": "Survivors/treated (%)", "setting": "G strain of HSV-2; [19]", "value": 100, "unit": "%"}, {"measurement": "median effective dose", "setting": "G strain of HSV-2; HSV2 encephalitis, ip twice daily for five days", "value": "2.5 to 5", "unit": "mg/kg"}]}, {"smiles": "O=c1[nH]c(Nc2ccccc2)nc2c1ncn2[C@H]1C[C@H](O)[C@@H](CO)O1", "note": "[PhdG, N^2-phenyl-2′-deoxyguanosine]", "values": [{"measurement": "number of ganglia producing virus compared to control ganglia", "setting": "HSV1 [1]", "value": "significantly reduced"}]}, {"smiles": "O=c1[nH]c(Nc2ccccc2)nc2c1ncn2CCCCO", "note": "[HBPG, 2-phenylamino-6-oxo-9-(4-hydroxybutyl)purine]", "values": [{"measurement": "Survivors/treated", "setting": "McKrae strain of HSV-1; [7]", "value": "1/10"}, {"measurement": "Survivors/treated", "setting": "McKrae strain of HSV-1; [8]", "value": "6/10*"}, {"measurement": "Survivors/treated (%)", "setting": "McKrae strain of HSV-1; [8]", "value": "(60%)"}, {"measurement": "Survivors/treated", "setting": "McKrae strain of HSV-1; [9]", "value": "9/10*"}, {"measurement": "Survivors/treated (%)", "setting": "McKrae strain of HSV-1; [9]", "value": "(90%)"}, {"measurement": "efficacy of HBPG alone", "setting": "McKrae strain of HSV-1; HSV1, 25 or 50 mg/kg HBPG alone", "value": "no efficacy"}, {"measurement": "amount of viral DNA in the relevant nerve ganglia", "setting": "HSV1 [2]; mice, HSV1", "value": "reduce the amount of viral DNA"}, {"measurement": "frequency of hyperthermia-induced HSV1 reactivation", "setting": "HSV1 [2]; mice", "value": "reduce the frequency"}, {"measurement": "preventing recurrence of ocular HSV1 disease", "setting": "HSV1 [2]; mouse model of latent HSV1 infection", "value": "clear efficacy"}, {"measurement": "Survivors/treated", "setting": "G strain of HSV-2; [10]", "value": "3/10"}, {"measurement": "Survivors/treated (%)", "setting": "G strain of HSV-2; [10]", "value": "(30%)"}, {"measurement": "Survivors/treated", "setting": "G strain of HSV-2; [11]", "value": "10/10*"}, {"measurement": "Survivors/treated (%)", "setting": "G strain of HSV-2; [11]", "value": "(100%)"}, {"measurement": "Survivors/treated", "setting": "G strain of HSV-2; [12]", "value": "9/10*"}, {"measurement": "Survivors/treated (%)", "setting": "G strain of HSV-2; [12]", "value": "(90%)"}, {"measurement": "efficacy of HBPG alone", "setting": "G strain of HSV-2; HSV2, 25 or 50 mg/kg HBPG alone", "value": "no efficacy"}, {"measurement": "Survivors/treated", "setting": "G strain of HSV-2; [13]", "value": "1/10"}, {"measurement": "Survivors/treated (%)", "setting": "G strain of HSV-2; [13]", "value": "(10%)"}, {"measurement": "Survivors/treated", "setting": "G strain of HSV-2; [20]", "value": "3/10"}, {"measurement": "Survivors/treated (%)", "setting": "G strain of HSV-2; [20]", "value": "(30) %"}, {"measurement": "preventing recurrence of ocular HSV1 disease", "setting": "HSV1 [3]; squirrel monkey model of latent HSV1 infection", "value": "clear efficacy"}, {"measurement": "frequency of recurrent ocular HSV1 disease", "setting": "HSV1 [3]; squirrel monkeys", "value": "reduce the frequency"}, {"measurement": "amount of viral DNA in the relevant nerve ganglia", "setting": "HSV2; HSV2", "value": "reduce the amount of viral DNA"}, {"measurement": "frequency of hyperthermia-induced HSV2 reactivation", "setting": "HSV2", "value": "reduce the frequency"}]}]}
